Data from patent publication US11767341B2, “Lincosamide antibiotics and uses thereof” (President and Fellows of Harvard College, priority 2017, dated 2023).
Values after ≈ are worked out from the molar mass of the structure shown.

Tested on: S. aureus ATCC 29213
Test: MIC determination
Format: cell-based
Details: Staphylococcus aureus, ATCC29213, S. aureus ATCC 29213; read-out: MIC

Structure (SMILES) | MIC
CSC1O[C@H]([C@H](NC(=O)[C@H]2NC[C@@H]3CN(C)CCO[C@H]32)[C@H](C)Cl)C(O)C(O)[C@H]1O (stereo partly drawn) [FSA-503002] | 64 µg/mL (≈ 141 µM)
CSC1O[C@H]([C@H](NC(=O)[C@H]2NC[C@@H]3C[C@@H](c4ccccc4F)CCO[C@H]32)[C@H](C)Cl)C(O)[C@@H](O)[C@H]1O (stereo partly drawn) [FSA-511100] | 0.25 µg/mL (≈ 0.469 µM)

Tested on: S. aureus BAA 977 iErmA
Test: MIC determination
Format: cell-based
Details: Staphylococcus aureus, BAA977

Structure (SMILES) | MIC
CSC1O[C@H]([C@H](NC(=O)[C@H]2NC[C@@H]3CN(C)CCO[C@H]32)[C@H](C)Cl)C(O)C(O)[C@H]1O (stereo partly drawn) [FSA-503002] | > 64 µg/mL
CSC1O[C@H]([C@H](NC(=O)[C@H]2NC[C@@H]3C[C@@H](c4ccccc4F)CCO[C@H]32)[C@H](C)Cl)C(O)[C@@H](O)[C@H]1O (stereo partly drawn) [FSA-511100] | 4 µg/mL (≈ 7.5 µM)

Tested on: S. aureus MP-549 msr(a) USA 300
Test: MIC determination
Format: cell-based
Details: Staphylococcus aureus, USA300, S. aureus MP-549 msr(a) USA 300

Structure (SMILES) | MIC
CSC1O[C@H]([C@H](NC(=O)[C@H]2NC[C@@H]3CN(C)CCO[C@H]32)[C@H](C)Cl)C(O)C(O)[C@H]1O (stereo partly drawn) [FSA-503002] | > 64 µg/mL
CSC1O[C@H]([C@H](NC(=O)[C@H]2NC[C@@H]3C[C@@H](c4ccccc4F)CCO[C@H]32)[C@H](C)Cl)C(O)[C@@H](O)[C@H]1O (stereo partly drawn) [FSA-511100] | 0.25 µg/mL (≈ 0.469 µM)

Tested on: S. aureus Micromyx USA 300
Test: MIC determination
Format: cell-based
Details: Staphylococcus aureus, USA300; S. aureus Micromyx USA 300; read-out: MIC

Structure (SMILES) | MIC
CCC[C@@H]1C[C@@H](C(=O)N[C@@H]([C@H]2O[C@H](SC)[C@H](O)[C@@H](O)[C@H]2O)[C@H](C)Cl)N(C)C1 [Clindamycin, clindamycin, reference compound] | 0.25 µg/mL (≈ 0.588 µM)

Tested on: S. aureus MP-513 clinical cErm
Test: MIC determination
Format: cell-based
Details: Staphylococcus aureus

Structure (SMILES) | MIC
CCC[C@@H]1C[C@@H](C(=O)N[C@@H]([C@H]2O[C@H](SC)[C@H](O)[C@@H](O)[C@H]2O)[C@H](C)Cl)N(C)C1 [Clindamycin, clindamycin, reference compound] | > 64 µg/mL
CSC1O[C@H]([C@H](NC(=O)[C@H]2NC[C@@H]3CN(C)CCO[C@H]32)[C@H](C)Cl)C(O)C(O)[C@H]1O (stereo partly drawn) [FSA-503002] | > 64 µg/mL

Same assay, conditions: Staphylococcus aureus; S. aureus MP-513 clinical cErm; read-out: MIC

Structure (SMILES) | MIC
CSC1O[C@H]([C@H](NC(=O)[C@H]2NC[C@@H]3C[C@@H](c4ccccc4F)CCO[C@H]32)[C@H](C)Cl)C(O)[C@@H](O)[C@H]1O (stereo partly drawn) [FSA-511100] | > 256 µg/mL

Tested on: S. pneumoniae ATCC 49619
Test: MIC determination
Format: cell-based
Details: Streptococcus pneumoniae, ATCC49619; S. pneumoniae ATCC 49619; read-out: MIC

Structure (SMILES) | MIC
CSC1O[C@H]([C@H](NC(=O)[C@H]2NC[C@@H]3C[C@@H](c4ccccc4F)CCO[C@H]32)[C@H](C)Cl)C(O)[C@@H](O)[C@H]1O (stereo partly drawn) [FSA-511100] | 0.125 µg/mL (≈ 0.234 µM)

Tested on: S. pneumoniae MMX 3028 cErmB
Test: MIC determination
Format: cell-based
Details: Streptococcus pneumoniae, MMX3028CERMB; S. pneumoniae MMX 3028 cErmB; read-out: MIC

Structure (SMILES) | MIC
CSC1O[C@H]([C@H](NC(=O)[C@H]2NC[C@@H]3C[C@@H](c4ccccc4F)CCO[C@H]32)[C@H](C)Cl)C(O)[C@@H](O)[C@H]1O (stereo partly drawn) [FSA-511100] | > 256 µg/mL

Tested on: S. pneumoniae UNT-038, MP-626, TP 160 (mefA)
Test: MIC determination
Format: cell-based
Details: Streptococcus pneumoniae

Structure (SMILES) | MIC
CCC[C@@H]1C[C@@H](C(=O)N[C@@H]([C@H]2O[C@H](SC)[C@H](O)[C@@H](O)[C@H]2O)[C@H](C)Cl)N(C)C1 [Clindamycin, clindamycin, reference compound] | ≤ 0.0313 µg/mL

Tested on: S. pneumoniae UNT-039, MP-627, TP1517 (mefA)
Test: MIC determination
Format: cell-based
Details: Streptococcus pneumoniae

Structure (SMILES) | MIC
CCC[C@@H]1C[C@@H](C(=O)N[C@@H]([C@H]2O[C@H](SC)[C@H](O)[C@@H](O)[C@H]2O)[C@H](C)Cl)N(C)C1 [Clindamycin, clindamycin, reference compound] | ≤ 0.0313 µg/mL
CSC1O[C@H]([C@H](NC(=O)[C@H]2NC[C@@H]3C[C@@H](c4ccccc4F)CCO[C@H]32)[C@H](C)Cl)C(O)[C@@H](O)[C@H]1O (stereo partly drawn) [FSA-511100] | 1 µg/mL (≈ 1.88 µM)

Tested on: S. pneumoniae TP 1579 (ermB + tet(M, O))
Test: MIC determination
Format: cell-based
Details: Streptococcus pneumoniae

Structure (SMILES) | MIC
CCC[C@@H]1C[C@@H](C(=O)N[C@@H]([C@H]2O[C@H](SC)[C@H](O)[C@@H](O)[C@H]2O)[C@H](C)Cl)N(C)C1 [Clindamycin, clindamycin, reference compound] | ≤ 0.0313 µg/mL

Tested on: S. pyogenes ATCC 19615
Test: MIC determination
Format: cell-based
Details: Streptococcus pyogenes, ATCC19615; S. pyogenes ATCC 19615; read-out: MIC

Structure (SMILES) | MIC
CSC1O[C@H]([C@H](NC(=O)[C@H]2NC[C@@H]3C[C@@H](c4ccccc4F)CCO[C@H]32)[C@H](C)Cl)C(O)[C@@H](O)[C@H]1O (stereo partly drawn) [FSA-511100] | 0.25 µg/mL (≈ 0.469 µM)

Tested on: S. pyogenes MMX 946 Macrolide-Resistant
Test: MIC determination
Format: cell-based
Details: Streptococcus pyogenes; S. pyogenes MMX 946 MacRes; read-out: MIC

Structure (SMILES) | MIC
CSC1O[C@H]([C@H](NC(=O)[C@H]2NC[C@@H]3C[C@@H](c4ccccc4F)CCO[C@H]32)[C@H](C)Cl)C(O)[C@@H](O)[C@H]1O (stereo partly drawn) [FSA-511100] | > 256 µg/mL

Tested on: S. pyogenes UNT-014, MP-625 MacRes
Test: MIC determination
Format: cell-based
Details: Streptococcus pyogenes; S. pyogenes UNT-014, MP-625 MacRes; read-out: MIC

Structure (SMILES) | MIC
CCC[C@@H]1C[C@@H](C(=O)N[C@@H]([C@H]2O[C@H](SC)[C@H](O)[C@@H](O)[C@H]2O)[C@H](C)Cl)N(C)C1 [Clindamycin, clindamycin, reference compound] | ≤ 0.0313 µg/mL

Tested on: E. faecalis ATCC 29212
Test: MIC determination
Format: cell-based
Details: Enterococcus faecalis, ATCC29212, read-out: MIC

Structure (SMILES) | MIC
CSC1O[C@H]([C@H](NC(=O)[C@H]2NC[C@@H]3C[C@@H](c4ccccc4F)CCO[C@H]32)[C@H](C)Cl)C(O)[C@@H](O)[C@H]1O (stereo partly drawn) [FSA-511100] | > 256 µg/mL

Tested on: E. faecalis MMX 847 Macrolide-Resistant
Test: MIC determination
Format: cell-based
Details: Enterococcus faecalis

Structure (SMILES) | MIC
CCC[C@@H]1C[C@@H](C(=O)N[C@@H]([C@H]2O[C@H](SC)[C@H](O)[C@@H](O)[C@H]2O)[C@H](C)Cl)N(C)C1 [Clindamycin, clindamycin, reference compound] | > 64 µg/mL

Tested on: K. pneumoniae ATCC 10031
Test: MIC determination
Format: cell-based
Details: Klebsiella pneumoniae, ATCC10031

Structure (SMILES) | MIC
CSC1O[C@H]([C@H](NC(=O)[C@H]2NC[C@@H]3CN(C)CCO[C@H]32)[C@H](C)Cl)C(O)C(O)[C@H]1O (stereo partly drawn) [FSA-503002] | > 64 µg/mL

Same assay, conditions: Klebsiella pneumoniae, ATCC10031; K. pneumoniae ATCC 10031; read-out: MIC

Structure (SMILES) | MIC
CSC1O[C@H]([C@H](NC(=O)[C@H]2NC[C@@H]3C[C@@H](c4ccccc4F)CCO[C@H]32)[C@H](C)Cl)C(O)[C@@H](O)[C@H]1O (stereo partly drawn) [FSA-511100] | > 64 µg/mL

Tested on: E. coli ATCC 25922
Test: MIC determination
Format: cell-based
Details: Escherichia coli, ATCC25922

Structure (SMILES) | MIC
CSC1O[C@H]([C@H](NC(=O)[C@H]2NC[C@@H]3CN(C)CCO[C@H]32)[C@H](C)Cl)C(O)C(O)[C@H]1O (stereo partly drawn) [FSA-503002] | > 64 µg/mL

Same assay, conditions: Escherichia coli, ATCC25922, E. coli ATCC 25922; read-out: MIC

Structure (SMILES) | MIC
CSC1O[C@H]([C@H](NC(=O)[C@H]2NC[C@@H]3C[C@@H](c4ccccc4F)CCO[C@H]32)[C@H](C)Cl)C(O)[C@@H](O)[C@H]1O (stereo partly drawn) [FSA-511100] | > 64 µg/mL

Tested on: E. coli MMX TolC parent strain
Test: MIC determination
Format: cell-based
Details: Escherichia coli

Structure (SMILES) | MIC
CCC[C@@H]1C[C@@H](C(=O)N[C@@H]([C@H]2O[C@H](SC)[C@H](O)[C@@H](O)[C@H]2O)[C@H](C)Cl)N(C)C1 [Clindamycin, clindamycin, reference compound] | > 64 µg/mL

Tested on: E. coli MMX 0121 ΔTolC
Test: MIC determination
Format: cell-based
Details: Escherichia coli

Structure (SMILES) | MIC
CCC[C@@H]1C[C@@H](C(=O)N[C@@H]([C@H]2O[C@H](SC)[C@H](O)[C@@H](O)[C@H]2O)[C@H](C)Cl)N(C)C1 [Clindamycin, clindamycin, reference compound] | 4 µg/mL (≈ 9.41 µM)

Tested on: E. coli MP-9 ΔTolC
Test: MIC determination
Format: cell-based
Details: Escherichia coli

Structure (SMILES) | MIC
CSC1O[C@H]([C@H](NC(=O)[C@H]2NC[C@@H]3CN(C)CCO[C@H]32)[C@H](C)Cl)C(O)C(O)[C@H]1O (stereo partly drawn) [FSA-503002] | > 64 µg/mL
CSC1O[C@H]([C@H](NC(=O)[C@H]2NC[C@@H]3C[C@@H](c4ccccc4F)CCO[C@H]32)[C@H](C)Cl)C(O)[C@@H](O)[C@H]1O (stereo partly drawn) [FSA-511100] | 32 µg/mL (≈ 60 µM)

Tested on: E. coli MP-74 LptD mutant
Test: MIC determination
Format: cell-based
Details: Escherichia coli

Structure (SMILES) | MIC
CSC1O[C@H]([C@H](NC(=O)[C@H]2NC[C@@H]3C[C@@H](c4ccccc4F)CCO[C@H]32)[C@H](C)Cl)C(O)[C@@H](O)[C@H]1O (stereo partly drawn) [FSA-511100] | 16 µg/mL (≈ 30 µM)

Tested on: E. coli GUEST131 (NDM-1)
Test: MIC determination
Format: cell-based
Details: Escherichia coli

Structure (SMILES) | MIC
CCC[C@@H]1C[C@@H](C(=O)N[C@@H]([C@H]2O[C@H](SC)[C@H](O)[C@@H](O)[C@H]2O)[C@H](C)Cl)N(C)C1 [Clindamycin, clindamycin, reference compound] | > 3 µg/mL

Tested on: P. aeruginosa ATCC 27853
Test: MIC determination
Format: cell-based
Details: Pseudomonas aeruginosa, ATCC27853

Structure (SMILES) | MIC
CCC[C@@H]1C[C@@H](C(=O)N[C@@H]([C@H]2O[C@H](SC)[C@H](O)[C@@H](O)[C@H]2O)[C@H](C)Cl)N(C)C1 [Clindamycin, clindamycin, reference compound] | > 64 µg/mL
CSC1O[C@H]([C@H](NC(=O)[C@H]2NC[C@@H]3CN(C)CCO[C@H]32)[C@H](C)Cl)C(O)C(O)[C@H]1O (stereo partly drawn) [FSA-503002] | > 64 µg/mL

Tested on: P. aeruginosa MMX Mex parent strain
Test: MIC determination
Format: cell-based
Details: Pseudomonas aeruginosa

Structure (SMILES) | MIC
CCC[C@@H]1C[C@@H](C(=O)N[C@@H]([C@H]2O[C@H](SC)[C@H](O)[C@@H](O)[C@H]2O)[C@H](C)Cl)N(C)C1 [Clindamycin, clindamycin, reference compound] | > 64 µg/mL

Tested on: P. aeruginosa MMX 3476 Δmex
Test: MIC determination
Format: cell-based
Details: Pseudomonas aeruginosa

Structure (SMILES) | MIC
CCC[C@@H]1C[C@@H](C(=O)N[C@@H]([C@H]2O[C@H](SC)[C@H](O)[C@@H](O)[C@H]2O)[C@H](C)Cl)N(C)C1 [Clindamycin, clindamycin, reference compound] | > 64 µg/mL

Tested on: H. influenzae ATCC 49247
Test: MIC determination
Format: cell-based
Details: Haemophilus influenzae, ATCC49247; H. influenzae ATCC 49247; read-out: MIC

Structure (SMILES) | MIC
CSC1O[C@H]([C@H](NC(=O)[C@H]2NC[C@@H]3C[C@@H](c4ccccc4F)CCO[C@H]32)[C@H](C)Cl)C(O)[C@@H](O)[C@H]1O (stereo partly drawn) [FSA-511100] | 64 µg/mL (≈ 120 µM)
